In the assay the target is T1, human PAR4 (Homo sapiens, UniProt Q96RI0).
T1 construct: expressed in transfected cells; host or cells: HEK293 PAR4 Clone 1.2A (BMS Arctic ID 383940)
T1 sequence (Q96RI0 18-385): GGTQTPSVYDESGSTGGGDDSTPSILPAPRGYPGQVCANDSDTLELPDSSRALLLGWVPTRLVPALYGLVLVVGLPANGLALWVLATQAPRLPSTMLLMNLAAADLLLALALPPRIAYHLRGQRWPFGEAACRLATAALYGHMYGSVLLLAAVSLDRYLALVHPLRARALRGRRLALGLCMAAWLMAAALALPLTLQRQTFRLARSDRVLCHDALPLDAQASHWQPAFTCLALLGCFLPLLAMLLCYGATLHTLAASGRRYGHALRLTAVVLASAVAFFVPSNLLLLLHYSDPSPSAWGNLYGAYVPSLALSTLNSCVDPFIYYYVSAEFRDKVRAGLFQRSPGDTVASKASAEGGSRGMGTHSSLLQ
Nature of the assay: PAR4 FLIPR assay: antagonism of agonist-peptide-induced calcium mobilization in PAR4-expressing HEK293 cells. The format is cell-based. The following applies: H-Ala-Phe(4-F)-[…]NH2-induced intracellular calcium mobilization, 11-point curves.
As a reminder, the IC50 is the concentration that gives 50% inhibition. For the molecule `COCc1cnc2c(-c3nc4cnccc4s3)cc(C)cc2n1` [Example 146, 2-(2-(methoxymethyl)-7-methylquinoxalin-5-yl)thiazolo[4,5-c]pyridine], the IC50 was found to be 7 nM.

On to `COCc1cnc2c(-c3nc4ccc(OC)nc4s3)cc(C)cc2n1` [Example 147], for which the IC50 worked out at 1.7 nM.

Take `COCc1cnc2c(-c3nc4cccnc4s3)cc(C)cc2n1` [Example 148, 2-(2-(methoxymethyl)-7-methylquinoxalin-5-yl)thiazolo[5,4-b]pyridine]: the 50% inhibitory concentration (IC50) worked out at 48 nM.

Turning to `COCc1cnc2c(-c3nc4c(Cl)cncc4s3)cc(C)cc2n1` [Example 149, 7-chloro-2-(2-(methoxymethyl)-7-methylquinoxalin-5-yl)thiazolo[5,4-c]pyridine], the half-maximal inhibitory concentration (IC50) was 4.2 nM.

Take `COc1cnc2c(-c3nc4ccc(OC)nc4s3)cc(C)cc2n1` [Example 150, 5-methoxy-2-(2-methoxy-7-methylquinoxalin-5-yl)thiazolo[5,4-b]pyridine]: the half-inhibitory concentration (IC50) stood at 94 nM.

On to `COc1cnc2c(-c3nc4c(Cl)cncc4s3)cc(C)cc2n1` [Example 151, 7-chloro-2-(2-methoxy-7-methylquinoxalin-5-yl)thiazolo[5,4-c]pyridine], for which the 50% inhibitory concentration (IC50) was found to be 2000 nM.

Regarding `COC(=O)c1cc(OC)cc2sc(-c3cc(C)cc4nc(OC)cnc34)nc12` [Example 152, methyl 6-methoxy-2-(2-methoxy-7-methylquinoxalin-5-yl)benzo[d]thiazole-4-carboxylate], the concentration for half-maximal inhibition (IC50) was determined as 38 nM.

For the molecule `COCc1cnc2c(-c3nc4c(C)cc(OC)cc4s3)nc(C)cc2c1` [Example 153, 6-methoxy-2-(3-(methoxymethyl)-6-methyl-1,7-naphthyridin-8-yl)-4-methylbenzo[d]thiazole], the IC50 was 16 nM.

For the molecule `COc1cc(CO)c2nc(-c3cc(C)cc4nc(OC)cnc34)sc2c1` [Example 154, (6-methoxy-2-(2-methoxy-7-methylquinoxalin-5-yl)benzo[d]thiazol-4-yl)methanol], the half-maximal inhibitory concentration (IC50) was determined as 3.8 nM.

On to `COCc1cnc2c(-c3nc4c(CO)cc(OC)cc4s3)cc(C)cc2n1` [Example 155, (6-methoxy-2-(2-(methoxymethyl)-7-methylquinoxalin-5-yl)benzo[d]thiazol-4-yl) methanol], for which the IC50 was found to be 0.8 nM.

As for `COCc1cnc2c(-c3nc4c(C(C)O)cc(OC)cc4s3)cc(C)cc2n1` (centres unmarked) [Example 156, 1-(6-methoxy-2-(2-(methoxymethyl)-7-methylquinoxalin-5-yl)benzo[d]thiazol-4-yl) ethanol], the concentration for half-maximal inhibition (IC50) is 1.4 nM.

Take `COCc1cnc2c(-c3nc4c(C(C)(C)O)cc(OC)cc4s3)cc(C)cc2n1` [Example 157, 2-(6-methoxy-2-(2-(methoxymethyl)-7-methylquinoxalin-5-yl)benzo[d]thiazol-4-yl) propan-2-ol]: the 50% inhibitory concentration (IC50) amounted to 31 nM.

In the case of `COCc1cnc2c(-c3nc4c(C(O)C5CC5)cc(OC)cc4s3)cc(C)cc2n1` (centres unmarked) [Example 158, Cyclopropyl(6-methoxy-2-(2-(methoxymethyl)-7-methylquinoxalin-5-yl)benzo[d]thiazol-4-yl)methanol], the 50% inhibitory concentration (IC50) was found to be 0.7 nM.

In the case of `COCc1cnc2c(-c3nc4c(CN(C)C)cc(OC)cc4s3)cc(C)cc2n1` [Example 159, 1-(6-methoxy-2-(2-(methoxymethyl)-7-methylquinoxalin-5-yl)benzo[d]thiazol-4-yl)-N,N-dimethylmethanamine], the IC50 is 25 nM.

`COc1cc(C(O)C2CC2)c2nc(-c3cc(C)cc4nc(OC)cnc34)sc2c1` (centres unmarked) [Example 160, Cyclopropyl(6-methoxy-2-(2-methoxy-7-methylquinoxalin-5-yl)benzo[d]thiazol-4-yl) methanol]: the IC50 is 1.2 nM.

With `COCc1cnc2c(-c3nc4c(C(O)c5ccccc5)cc(OC)cc4s3)cc(C)cc2n1` (centres unmarked) [Example 161, (6-methoxy-2-(2-(methoxymethyl)-7-methylquinoxalin-5-yl)benzo[d]thiazol-4-yl) (phenyl)methanol], the IC50 came out at 0.7 nM.

Consider `COCc1cnc2c(-c3nc4c(C(=O)O)cc(OC)cc4s3)cc(C)cc2n1` [Example 162, 6-methoxy-2-(2-(methoxymethyl)-7-methylquinoxalin-5-yl)benzo[d]thiazole-4-carboxylic acid], for which the 50% inhibitory concentration (IC50) came out at 270 nM.

Take `COCc1cnc2c(-c3nc4c(C(O)C5CCCCC5)cc(OC)cc4s3)cc(C)cc2n1` (centres unmarked) [Example 165, Cyclohexyl(6-methoxy-2-(2-(methoxymethyl)-7-methylquinoxalin-5-yl)benzo[d]thiazol-4-yl)methanol]: the IC50 was 1.2 nM.

Regarding `COCc1cnc2c(-c3nc4c(C(O)C5CCC5)cc(OC)cc4s3)cc(C)cc2n1` (centres unmarked) [Example 166, Cyclobutyl(6-methoxy-2-(2-(methoxymethyl)-7-methylquinoxalin-5-yl)benzo[d]thiazol-4-yl)methanol], the IC50 was 2.8 nM.

`COCc1cnc2c(-c3nc4c(C(O)c5ccccn5)cc(OC)cc4s3)cc(C)cc2n1` (centres unmarked) [Example 167, (6-methoxy-2-(2-(methoxymethyl)-7-methylquinoxalin-5-yl)benzo[d]thiazol-4-yl)(pyridin-2-yl)methanol]: the concentration for half-maximal inhibition (IC50) worked out at 4.5 nM.

For `COCc1cnc2c(-c3nc4c(C(O)c5cccnc5)cc(OC)cc4s3)cc(C)cc2n1` (centres unmarked) [Example 168, (6-methoxy-2-(2-(methoxymethyl)-7-methylquinoxalin-5-yl)benzo[d]thiazol-4-yl) (pyridin-3-yl)methanol], the IC50 was determined as 2 nM.

For `COCc1cnc2c(-c3nc4c(C(O)C(F)(F)F)cc(OC)cc4s3)cc(C)cc2n1` (centres unmarked) [Example 171, 2,2,2-trifluoro-1-(6-methoxy-2-(2-(methoxymethyl)-7-methylquinoxalin-5-yl)benzo[d]thiazol-4-yl)ethanol], the IC50 is 0.6 nM.

Consider `COCc1cnc2c(-c3nc4c(C(O)c5ccncc5)cc(OC)cc4s3)cc(C)cc2n1` (centres unmarked) [Example 172, (6-methoxy-2-(2-(methoxymethyl)-7-methylquinoxalin-5-yl)benzo[d]thiazol-4-yl)(pyridin-4-yl)methanol], for which the IC50 came to 1.7 nM.

For `COCc1cnc2c(-c3nc4c(C(O)CC(F)(F)F)cc(OC)cc4s3)cc(C)cc2n1` (centres unmarked) [Example 173, 3,3,3-trifluoro-1-(6-methoxy-2-(2-(methoxymethyl)-7-methylquinoxalin-5-yl)benzo[d]thiazol-4-yl)propan-1-ol], the half-maximal inhibitory concentration (IC50) stood at 2.7 nM.

`COc1cc(C(O)C(F)(F)F)c2nc(-c3cc(C)cc4nc(OC)cnc34)sc2c1` (centres unmarked) [Example 174, 2,2,2-trifluoro-1-(6-methoxy-2-(2-methoxy-7-methylquinoxalin-5-yl)benzo[d]thiazol-4-yl)ethanol]: the IC50 stood at 3 nM.

Turning to `COc1cnc2c(-c3cc4ccccc4o3)cc(C)cc2n1` [Example 175, 5-(benzofuran-2-yl)-2-methoxy-7-methylquinoxaline], the IC50 came out at 23 nM.

Take `COC(=O)c1cnc2c(-c3cc4ccccc4o3)cc(C)cc2n1` [Example 176, methyl 5-(benzofuran-2-yl)-7-methylquinoxaline-2-carboxylate]: the IC50 stood at 980 nM.

For the molecule `COc1cnc2c(-c3cc4ccccc4o3)cc(C)cc2c1` [Example 177, 8-(benzofuran-2-yl)-3-methoxy-6-methylquinoline], the IC50 amounted to 190 nM.

As to `Cc1cc(-c2nc3c(s2)CCCC3)c2ncc(OC(F)F)nc2c1` [Example 178, 2-(2-(difluoromethoxy)-7-methylquinoxalin-5-yl)-4,5,6,7-tetrahydrobenzo[d]thiazole], the half-inhibitory concentration (IC50) was found to be 13 nM.
